Patent US10413583B2, “Synthetic substrates for enzymes that catalyze reactions of modified cysteines and related methods” (The University of Chicago, priority 2016, dated 2019)

Tested on: A431 cells
Test: DPP-3 in A431 cells, starvation and EGF stimulation (flow cytometry, microscopy)
Assay type: cell-based, human
Settings: serum starved A431; 1 ng/mL EGF for 15 min; 5 μM DPP-3
Protocol: Cells were plated on a 10 cm dish with 10 mL of DMEM/High Glucose (10% FBS, 1% P/S, L-Glutamine, Sodium pyruvate) 36-48 hours prior to the day of experiment and maintained at 37° C., 5% CO2 so as to obtain 80-90% confluency. Cells were washed with DPBS and trypsinized with 1 mL 0.05% Trypsin. 5 mL of DMEM/High Glucose (10% FBS, L-Glutamine, Sodium pyruvate) was added and cells were spun down at 1200 rpm for 3 min. Media was discarded and cells were resuspended in 5 mL of Live Cell Imaging Solution and again spun down at 1200 rpm for 3 min. The cells pellets obtained were resuspended in 3-5 mL of Live Cell Imaging Solution and divided into 500 μL aliquots. The aliquots were treated with either 0.2% DMSO carrier or 1 μM of PalmB/ML348 or 1 μM/5 μM of ML349 inhibitor. After 30 min of incubation at room temperature, 1 μL of 2.5 mM DPP-3 in DMSO was added to each aliquot for a final concentration of 5 μM, and the solutions were mixed. After 5 min incubation at room temperature, fluorescence signal in FITC channel was measured for 10000 cells (5000 for HeLa experiments) on a LSR-Fortessa 4-15 HTS (BD digital instrument, 488 nm laser with 530/30 nm filter for FITC; BD, Franklin Lakes, N.J., United States of America). For analyzing DPP2 in HEK293T cells, the aliquots were treated with either 0.2% DMSO carrier or 2 μM of PalmB, 5 or 20 μM of ML348/ML349 and then analyzed by the protocol as mentioned above. Data was analyzed by FlowJo software version 10.0.8. For comparison of A431 starved versus non-starved, parallel 10 cm dishes of A431 cells were plated in 10 mL of DMEM (high glucose, 10% FBS, 1% P/S), and grown for 36 h. The growth media was removed, and replaced by 10 mL of either DMEM (High glucose) with 10% FBS to maintain “growth” conditions, or DMEM (High glucose) without FBS respectively for “starvation” conditions, and incubated for 14 h. After trypsinization, both plates were treated with 5 mL of DMEM (high glucose) for spinning the cells down, and further processing and analysis were performed as described above by flow cytometry.
Parallel 35 mm glass bottom dishes (D35-10-1.5-N; Cellvis, Mountain View, Calif., United States of America) of A431 cells (450,000) were plated in 2 mL of DMEM glutamax (high glucose, 10% FBS, 1% P/S), and grown for 36 h. The growth media was removed, and replaced by 1.5 mL of either DMEM (High glucose) with 10% FBS to maintain “growth” conditions, or DMEM (High glucose) without FBS respectively for “starvation” conditions, and incubated for 24 h. […] For data analysis, the average fluorescence intensity per image in each experimental condition was obtained by selecting ROIs in the brightfield image. For display, the data were normalized to the average fluorescence intensity of the control conditions. […]

Substance: EGF: epidermal growth factor, obtained from Gold Biotechnology (NSDSECPLSHDGYCLHDGVCMYIEALDKYACNCVVGYIGERCQYRDLKWWELR; UniProt P01133 971-1023, looked up)
- effect on depalmitoylation activity measured by DPP-3: inhibition of depalmitoylation activity
